Experimental data reported in patent publication US7053175B1, “Synthetic peptides useful in biological assays for detecting infections caused by group O HIV-1 viruses” (Bio-Rad Pasteur, priority 1997, dated 2006).
No end group written: not given here.

How the values were obtained:
[1] = tested on: serum samples from patients infected with group O HIV-1 retroviruses; test: Immunoenzymatic test: Test No. 2 (immunoreactivity with diluted sera); format: binding, human; details: solid phase peptide 2 μg/ml; for Number of samples: sera of Table V; for ABSORBANCE (OD): cyclized
Source text: The serum samples from patients infected with group O HIV-1 retroviruses were obtained by the Yaounde Pasteur Centre in Cameroon and were serotyped group O according to the serological algorithm described in AIDS (1977), 11, pp. 445-453. A genotyped sample (Maryland) is obtained from the United States. These samples were previously diluted in negative human serum at the dilutions given in Table V, in order to have a sufficient volume for the different immunoreactivity tests.
The synthetic peptides used were dissolved in water at a concentration of 1 mg/ml (stock solution). For the solid phase sensitization step (“coating”), the procedure was carried out as described for Example 2.
The serum samples were diluted 1/5 with a skimmed milk solution (citrate buffer supplemented with 0.01% of phenol red, 0.25% of chloroform and 0.25% of Kathon®), deposited in the wells of plates and incubated for 30 min at 40° C.
After washing with a Tris-NaCl buffer solution pH 7.4 containing 0.1% of Tween® 20 and 0.001% of sodium merthiolate, 100 μl of a solution of conjugate consisting of horseradish peroxidase-labelled anti-human IgG and IgM goat antibodies, containing as preservative 0.01% of sodium merthiolate, in solution in a citrate buffer solution supplemented with 30% glycerol and 25% normal foetal calf serum, were added to each well of the plates and then they were incubated for 30 min at 40° C.
After washing with a Tris-NaCl buffer solution pH 7.4 containing 0.1% of Tween® 20 and 0.001% of sodium merthiolate, the colour was developed as described in Example 2.
The relative absorbance (OD) (A490-A620) read in each well is proportional to the immunoreactivity of each peptide. It indicates the ability of each peptide to react with the biological sample with which the test is carried out.
The reactivity of the peptides of the invention, peptides No. 10 (14B), No. 11 (18B), No. 12 (19B), No. 14 (21B), No. 15 (22B), No. 16 (23B) all in cyclized form, was compared with that of three homologous synthetic peptides having, as sequence, a portion of the natural sequence of the envelope (env) of a group O HIV-1 retrovirus. These peptides are two peptides derived from the VAU isolate—the peptide VAU 22 AA and the peptide VAU 35 AA—and the peptide MVP 5180 (designated “MVP 5180” in Table V). The peptides VAU 22 AA and VAU 35 AA (whose structure is indicated in Example 2) and the peptide MVP 5180 comprise an immunodominant epitope of gp41.
All these peptides were used in cyclized form. The sequence of the MVP 5180 peptide is the following:
For each peptide tested, the samples were arranged into four classes (a, b, c and d) corresponding to various levels of relative absorbance read at the wavelengths A492-A620: • for a: OD<0.100, • for b: 0.100<OD<0.500, • for c: 0.500<OD<1.000, • for d: OD>1.000, thus making it possible to evaluate the degree of immunoreactivity of the peptides.

[2] = tested on: sera from patients infected with group O HIV-1 retroviruses; test: Immunoenzymatic test of compositions containing peptides (Example 4); format: binding, human; design: key: >: signal greater than the reading capacity of the spectrophotometer; details: single peptide 2 μg/ml or composition 1 μg/ml + 1 μg/ml
Description: For this test, the procedure was carried out according to the protocol described in Example 2 and the same sera were used. The microplates used were sensitized either with peptide No. 1 (2B) cyclized, or with peptide No. 3 (4B) cyclized, or with a composition containing these two peptides (1:1 w/w). Into each well, there were deposited either 100 μl of a solution containing 2 μg/ml of peptide No. 1 (2B), or 100 μl of a solution containing 2 μg/ml of peptide No. 3 (4B), or 100 μl of a solution containing 1 μg/ml of peptide No. 1 (2B) and 1 μg/ml of peptide No. 3 (4B).

For “LLNLWGCKNRAICYTSVKWNKT (cysteine pairing not given here) [VAU 22 AA, reference compound]”, the Number of samples ([1]; CLASS A (a: OD<0.100)) was 7, the Number of samples ([1]; CLASS B (b: 0.100<OD<0.500)) was 7 and the Number of samples ([1]; CLASS C (c: 0.500<OD<1.000)) was 0. For the same sequence, the Number of samples ([1]; CLASS D (d: OD>1.000)) was 0, the “ABSORBANCE (OD)” value ([1]; serum 258 OUDI at 1/100) was 0.100 and the “ABSORBANCE (OD)” value ([1]; serum 625 at 1/50) was 0.165. For the same sequence, the “ABSORBANCE (OD)” value ([1]; serum 3600 at 1/100) was 0.058, the “ABSORBANCE (OD)” value ([1]; serum 3613 at ¼00) was 0.396 and the “ABSORBANCE (OD)” value ([1]; serum 3653 at 1/10) was 0.310. The “ABSORBANCE (OD)” value ([1]; serum 4280 at 1/50) was 0.021, the “ABSORBANCE (OD)” value ([1]; serum 6111 at 1/100) was 0.180 and the “ABSORBANCE (OD)” value ([1]; serum DJOU at 1/100) was 0.042. The “ABSORBANCE (OD)” value ([1]; serum DO15 at 1/100) was 0.075, the “ABSORBANCE (OD)” value ([1]; serum MBASSI at 1/100) was 0.257 and the “ABSORBANCE (OD)” value ([1]; serum Maryland at ¼00) was 0.168. For the same sequence, the “ABSORBANCE (OD)” value ([1]; serum NGO at 1/50) was 0.040, the “ABSORBANCE (OD)” value ([1]; serum NJEM at 1/100) was 0.024 and the “ABSORBANCE (OD)” value ([1]; serum WANG at 1/50) was 0.041.

For “LLSLWGCRGKAVCYTSVQWNET [PEPTIDE No. 1 (2B)]”, the ABSORBANCE ([2]; serum 1062) was “>”, the ABSORBANCE ([2]; serum 1702) was 1.016 and the ABSORBANCE ([2]; serum 1754) was “>”. For the same sequence, the ABSORBANCE ([2]; serum 2294) was 0.447, the ABSORBANCE ([2]; serum 2352) was 0.205 and the ABSORBANCE ([2]; serum 2551) was “>”. For the same sequence, the ABSORBANCE ([2]; serum 2700) was “>”, the ABSORBANCE ([2]; serum 3016) was 0.243 and the ABSORBANCE ([2]; serum 3136 (listed twice)) was 0.302. For the same sequence, the ABSORBANCE ([2]; serum 3235) was “>”, the ABSORBANCE ([2]; serum 3302) was 0.386 and the ABSORBANCE ([2]; serum 3482) was 1.473. The ABSORBANCE ([2]; serum 3600) was 2.743, the ABSORBANCE ([2]; serum 3627) was 2.910 and the ABSORBANCE ([2]; serum 3771) was 0.544. The ABSORBANCE ([2]; serum 3891) was 2.780, the ABSORBANCE ([2]; serum 3935) was 0.307 and the ABSORBANCE ([2]; serum 4477*) was “>”. The ABSORBANCE ([2]; serum 4489) was “>”, the ABSORBANCE ([2]; serum 5149) was “>” and the ABSORBANCE ([2]; serum 5270) was “>”. The ABSORBANCE ([2]; serum 5931) was “>”, the ABSORBANCE ([2]; serum 6165) was 2.714 and the ABSORBANCE ([2]; serum 6198) was “>”. For the same sequence, the ABSORBANCE ([2]; serum 6627) was “>”, the ABSORBANCE ([2]; serum 6697) was “>” and the ABSORBANCE ([2]; serum 6891) was 0.062. The ABSORBANCE ([2]; serum 6976) was “>”, the ABSORBANCE ([2]; serum 6998) was “>” and the ABSORBANCE ([2]; serum 7258) was 2.477. For the same sequence, the ABSORBANCE ([2]; serum 7443) was “>”.

With “LLSSWGCKGRLVCYTSVQWNET [PEPTIDE No. 3 (4B)]” the ABSORBANCE ([2]; serum 1062) was “>”, the ABSORBANCE ([2]; serum 1702) was “>” and the ABSORBANCE ([2]; serum 1754) was “>”. The ABSORBANCE ([2]; serum 2294) was “>”, the ABSORBANCE ([2]; serum 2352) was “>” and the ABSORBANCE ([2]; serum 2551) was “>”. The ABSORBANCE ([2]; serum 2700) was “>”, the ABSORBANCE ([2]; serum 3016) was “>” and the ABSORBANCE ([2]; serum 3136 (listed twice)) was “>”. The ABSORBANCE ([2]; serum 3235) was “>”, the ABSORBANCE ([2]; serum 3302) was “>” and the ABSORBANCE ([2]; serum 3482) was “>”. The ABSORBANCE ([2]; serum 3600) was “>”, the ABSORBANCE ([2]; serum 3627) was “>” and the ABSORBANCE ([2]; serum 3771) was “>”. The ABSORBANCE ([2]; serum 3891) was “>”, the ABSORBANCE ([2]; serum 3935) was “>” and the ABSORBANCE ([2]; serum 4477*) was “>”. The ABSORBANCE ([2]; serum 4489) was “>”, the ABSORBANCE ([2]; serum 5149) was “>” and the ABSORBANCE ([2]; serum 5270) was “>”. For the same sequence, the ABSORBANCE ([2]; serum 5931) was “>”, the ABSORBANCE ([2]; serum 6165) was “>” and the ABSORBANCE ([2]; serum 6198) was “>”. For the same sequence, the ABSORBANCE ([2]; serum 6627) was “>”, the ABSORBANCE ([2]; serum 6697) was “>” and the ABSORBANCE ([2]; serum 6891) was “>”. The ABSORBANCE ([2]; serum 6976) was “>”, the ABSORBANCE ([2]; serum 6998) was “>” and the ABSORBANCE ([2]; serum 7258) was “>”. For the same sequence, the ABSORBANCE ([2]; serum 7443) was “>”.

For “RLLALETFIEENELLNLWGCKNRAICYTSVKWNKT (cysteine pairing not given here) [VAU 35 AA, reference compound]”, the Number of samples ([1]; CLASS A (a: OD<0.100)) was 11, the Number of samples ([1]; CLASS B (b: 0.100<OD<0.500)) was 3 and the Number of samples ([1]; CLASS C (c: 0.500<OD<1.000)) was 0. The Number of samples ([1]; CLASS D (d: OD>1.000)) was 0, the “ABSORBANCE (OD)” value ([1]; serum 258 OUDI at 1/100) was 0.058 and the “ABSORBANCE (OD)” value ([1]; serum 625 at 1/50) was 0.069. The “ABSORBANCE (OD)” value ([1]; serum 3600 at 1/100) was 0.025, the “ABSORBANCE (OD)” value ([1]; serum 3613 at ¼00) was 0.250 and the “ABSORBANCE (OD)” value ([1]; serum 3653 at 1/10) was 0.021. For the same sequence, the “ABSORBANCE (OD)” value ([1]; serum 4280 at 1/50) was 0.013, the “ABSORBANCE (OD)” value ([1]; serum 6111 at 1/100) was 0.087 and the “ABSORBANCE (OD)” value ([1]; serum DJOU at 1/100) was 0.022. For the same sequence, the “ABSORBANCE (OD)” value ([1]; serum DO15 at 1/100) was 0.036, the “ABSORBANCE (OD)” value ([1]; serum MBASSI at 1/100) was 0.120 and the “ABSORBANCE (OD)” value ([1]; serum Maryland at ¼00) was 0.054. For the same sequence, the “ABSORBANCE (OD)” value ([1]; serum NGO at 1/50) was 0.055, the “ABSORBANCE (OD)” value ([1]; serum NJEM at 1/100) was 0.159 and the “ABSORBANCE (OD)” value ([1]; serum WANG at 1/50) was 0.025.
